Patent US20220106289A1, “NLRP3 INHIBITORS” (INFLAZOME LIMITED, priority 2018, published 2022)
pIC50: −log10 of the molar value. Counter-ions that a name gives are not always drawn. Like-named read-outs stand apart in the source and are kept apart here.

Assays:
[1] = PK in rats, oral administration; assay type: in vivo; details: male, Sprague-Dawley; for AUC / Cmax / Tmax / half-life: rat plasma; for CL/F / bioavailability: plasma, rat
Protocol: (§1) Pharmacokinetic parameters were determined in male Sprague Dawley rats (Charles River, UK, 250-300 g; or Vital River Laboratory Animal Technology Co Ltd, Beijing, China, 7-9 weeks old). Animals were individually housed during the study and maintained under a 12 h light/dark cycle. Animals had free access to food and water, except that orally dosed animals were food deprived overnight prior to the study. For intravenous administration, compounds were formulated as a solution in DMSO:PBS [10:90] in 2 mL/kg dosing volume and administered via tail vein. For oral administration, compounds were formulated as a solution in DMSO:water [10:90] in 5 mL/kg dosing volume and administered orally. Serial blood samples (about 200-230 μL) were taken from each animal at each of 8 time-points post dose (0.083, 0.25, 0.5, 1, 2, 4, 8 and 24 h). Samples were held on ice for no longer than 30 minutes before centrifugation (10,000 rpm (8,385 g) for 3 minutes; or 5,696 rpm (3,000 g) for 15 minutes) for plasma generation. Plasma was frozen on dry ice prior to bioanalysis. PK parameters were generated from LC-MS/MS data using Dotmatics or Phoenix WinNonlin 6.3 software.

NLRP3 [2] = target: T1, NLRP3 (Homo sapiens, UniProt Q96P20); assay: Human whole blood IL-1β release assay (LPS + nigericin, AlphaLisa); assay type: cell-based; set-up: Human whole blood in Li-heparin tubes was obtained from healthy donors; from tissue; host or cells: human whole blood from healthy donors; details: NLRP3 inhibitory activity, 1 μg/ml LPS, 10 μM nigericin, read-out: HWB IC50
T1 sequence (Q96P20 whole entry): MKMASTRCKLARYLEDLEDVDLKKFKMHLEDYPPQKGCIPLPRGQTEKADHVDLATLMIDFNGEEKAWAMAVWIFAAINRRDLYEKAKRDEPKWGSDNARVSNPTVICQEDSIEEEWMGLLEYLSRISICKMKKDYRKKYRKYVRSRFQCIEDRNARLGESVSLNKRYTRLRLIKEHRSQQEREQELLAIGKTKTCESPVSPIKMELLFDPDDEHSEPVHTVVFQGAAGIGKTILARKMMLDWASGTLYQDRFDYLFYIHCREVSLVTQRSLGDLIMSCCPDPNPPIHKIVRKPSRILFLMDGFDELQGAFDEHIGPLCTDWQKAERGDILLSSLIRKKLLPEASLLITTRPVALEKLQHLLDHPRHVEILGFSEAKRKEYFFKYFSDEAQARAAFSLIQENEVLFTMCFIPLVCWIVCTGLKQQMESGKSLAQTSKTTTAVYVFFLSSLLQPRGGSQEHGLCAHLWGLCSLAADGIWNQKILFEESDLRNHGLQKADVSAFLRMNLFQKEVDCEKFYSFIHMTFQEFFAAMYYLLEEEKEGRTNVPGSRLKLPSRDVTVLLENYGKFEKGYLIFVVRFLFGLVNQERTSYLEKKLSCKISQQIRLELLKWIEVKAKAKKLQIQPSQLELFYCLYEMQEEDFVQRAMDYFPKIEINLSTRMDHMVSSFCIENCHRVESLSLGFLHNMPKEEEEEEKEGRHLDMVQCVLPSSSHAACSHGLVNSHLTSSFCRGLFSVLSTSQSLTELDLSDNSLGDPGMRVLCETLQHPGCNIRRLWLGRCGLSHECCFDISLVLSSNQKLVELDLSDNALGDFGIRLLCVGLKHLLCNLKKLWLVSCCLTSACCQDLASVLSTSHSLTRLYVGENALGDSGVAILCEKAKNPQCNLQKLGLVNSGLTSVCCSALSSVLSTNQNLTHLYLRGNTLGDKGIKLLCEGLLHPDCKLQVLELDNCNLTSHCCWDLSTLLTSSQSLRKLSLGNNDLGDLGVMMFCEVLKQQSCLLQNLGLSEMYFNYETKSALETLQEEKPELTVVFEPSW
Protocol: For systemic delivery, the ability to inhibit NLRP3 when the compounds are present within the bloodstream is of great importance. For this reason, the NLRP3 inhibitory activity of a number of compounds in human whole blood was investigated in accordance with the following protocol. Human whole blood in Li-heparin tubes was obtained from healthy donors from a volunteer donor panel. • 1. […] Incubate for 3 hrs at 37° C., 5% CO2 • 4. Add 10 μl nigericin (Sigma #N7143) (10 μM FAC) to all wells • 5. Incubate for 1 hr at 37° C., 5% CO2 • 6. At the end of the incubation period, spin plates at 300×g for 5 mins to pellet cells and remove 20 μl of supernatant and add to 96-well v-bottom plates for IL-1β analysis (note: these plates containing the supernatants can be stored at -80° C. to be analysed at a later date) • 7. IL-1β was measured according to the manufacturer protocol (Perkin Elmer-AlphaLisa IL-1 Kit A[…]-5000) • 8.

NLRP3 [3] = target: T1, NLRP3; assay: THP-1 cells pyroptosis assay (LPS + nigericin, resazurin read-out); assay type: cell-based; set-up: Seed THP-1 cells (25,000 cells/well) containing 1.0 μg/ml LPS; host or cells: THP-1 cells; details: NLRP3 inhibitory activity, 1 μg/ml LPS, 5 μM nigericin
Procedure, shortened: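 THP-1 cells in serum-free RPMI were primed with 1 μg/ml LPS and incubated 3 h at 37° C with compound, then given 5 μM nigericin for 1 h. After supernatant removal, viability was read by 100 μM resazurin over 1-2 h at 37° C.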

[4] = PK in rats, intravenous administration; assay type: in vivo; details: male, Sprague-Dawley; for AUC / half-life: rat plasma; for clearance / Vd: plasma, rat; for Vd: read-out: Vdss
Protocol: as §1

COC(C)(C)c1cc(S(=O)(=O)NC(=O)Nc2c3c(cc4c2CCC4)CCC3)nn1C [Example 39, N-((1,2,3,5,6,7-Hexahydro-s-indacen-4-yl)carbamoyl)-5-(2-methoxypropan-2-yl)-1-methyl-1H-pyrazole-3-sulfonamide]
AUC ([1]; 3 mg/kg): 3920 ng·h/mL | Cmax ([1]; 3 mg/kg): 1370 ng/mL | Tmax ([1]; 3 mg/kg): 0.83 h | half-life ([1]; 3 mg/kg): 132 min | CL/F ([1]; 3 mg/kg): 13 mL/min/kg | bioavailability ([1]; 3 mg/kg): > 100% | pIC50 (NLRP3 [2]): 6.00 to 6.30 | pIC50 (NLRP3 [3]): > 6.60 | AUC ([4]; 3 mg/kg): 3840 ng·h/mL | half-life ([4]; 3 mg/kg): 240 min | clearance ([4]; 3 mg/kg): 13.1 mL/min/kg | Vd ([4]; 3 mg/kg): 0.9 L/kg

COC(C)(C)c1cc(S(=O)(=O)NC(=O)Nc2c(C(C)C)cc(Cl)cc2C(C)C)nn1C [Example 83, N-((4-Chloro-2,6-diisopropylphenyl)carbamoyl)-5-(2-methoxypropan-2-yl)-1-methyl-1H-pyrazole-3-sulfonamide]
AUC ([1]; 1.3 mg/kg): 2750 ng·h/mL | Cmax ([1]; 1.3 mg/kg): 468 ng/mL | Tmax ([1]; 1.3 mg/kg): 3.17 h | half-life ([1]; 1.3 mg/kg): 222 min | CL/F ([1]; 1.3 mg/kg): 8.5 mL/min/kg | bioavailability ([1]; 1.3 mg/kg): > 100% | pIC50 (NLRP3 [2]): 5.30 to 6.00 | pIC50 (NLRP3 [3]): > 6.60 | AUC ([4]; 1 mg/kg): 1130 ng·h/mL | half-life ([4]; 1 mg/kg): 234 min | clearance ([4]; 1 mg/kg): 14.8 mL/min/kg | Vd ([4]; 1 mg/kg): 2.23 L/kg

CCn1ccc(S(=O)(=O)NC(=O)Nc2c3c(cc4c2CCC4)CCC3)n1 [Example 45, 1-Ethyl-N-((1,2,3,5,6,7-hexahydro-s-indacen-4-yl)carbamoyl)-1H-pyrazole-3-sulfonamide, sodium salt]
AUC ([1]; 3 mg/kg): 61600 ng·h/mL | Cmax ([1]; 3 mg/kg): 7900 ng/mL | Tmax ([1]; 3 mg/kg): 2 h | half-life ([1]; 3 mg/kg): 150 min | CL/F ([1]; 3 mg/kg): 0.8 mL/min/kg | pIC50 (NLRP3 [2]): 5.30 to 6.00 | pIC50 (NLRP3 [3]): > 6.60

[2H]C([2H])([2H])C([2H])(n1ccc(S(=O)(=O)NC(=O)Nc2c3c(cc4c2CCC4)CCC3)n1)C([2H])([2H])[2H] [Example 20, N-((1,2,3,5,6,7-Hexahydro-s-indacen-4-yl)carbamoyl)-1-(propan-2-yl-d7)-1H-pyrazole-3-sulfonamide, potassium salt]
AUC ([4]; 1 mg/kg): 21600 ng·h/mL | half-life ([4]; 1 mg/kg): 282 min | clearance ([4]; 1 mg/kg): 0.8 mL/min/kg | Vd ([4]; 1 mg/kg): 0.25 L/kg

O=C(Nc1c2c(cc3c1CCC3)CCC2)NS(=O)(=O)c1cnn(CC(F)(F)F)c1 [Example 41, N-((1,2,3,5,6,7-Hexahydro-s-indacen-4-yl)carbamoyl)-1-(2,2,2-trifluoroethyl)-1H-pyrazole-4-sulfonamide, sodium salt]
pIC50 (NLRP3 [2]): 5.00 to 5.30 | pIC50 (NLRP3 [3]): 6.30 to 6.60

COC1(c2cc(S(=O)(=O)NC(=O)Nc3c4c(cc5c3CCC5)CCC4)nn2C)CCC1 [Example 51, N-((1,2,3,5,6,7-Hexahydro-s-indacen-4-yl)carbamoyl)-5-(1-methoxycyclobutyl)-1-methyl-1H-pyrazole-3-sulfonamide]
pIC50 (NLRP3 [2]): 6.30 to 6.60 | pIC50 (NLRP3 [3]): > 6.60 | AUC ([4]; 1 mg/kg): 4870 ng·h/mL | half-life ([4]; 1 mg/kg): 60 min | clearance ([4]; 1 mg/kg): 3.4 mL/min/kg | Vd ([4]; 1 mg/kg): 0.29 L/kg

COC(C)c1cc(S(=O)(=O)NC(=O)Nc2c3c(cc4c2CCC4)CCC3)nn1C (centres unmarked) [Example 53, N-((1,2,3,5,6,7-Hexahydro-s-indacen-4-yl)carbamoyl)-5-(1-methoxyethyl)-1-methyl-1H-pyrazole-3-sulfonamide]
pIC50 (NLRP3 [2]): 6.00 to 6.30 | pIC50 (NLRP3 [3]): > 6.60

CC(C)n1cc(F)c(S(=O)(=O)NC(=O)Nc2c3c(cc4c2CCC4)CCC3)n1 [Example 55, 4-Fluoro-N-((1,2,3,5,6,7-hexahydro-s-indacen-4-yl)carbamoyl)-1-isopropyl-1H-pyrazole-3-sulfonamide]
pIC50 (NLRP3 [2]): 6.00 to 6.30 | pIC50 (NLRP3 [3]): > 6.60

CCn1cc(S(=O)(=O)NC(=O)Nc2c3c(cc4c2CCC4)CCC3)nn1 [Example 19, 1-Ethyl-N-((1,2,3,5,6,7-hexahydro-s-indacen-4-yl)carbamoyl)-1H-1,2,3-triazole-4-sulfonamide, potassium salt]
pIC50 (NLRP3 [2]): 6.00 to 6.30 | pIC50 (NLRP3 [3]): 6.30 to 6.60

CC(C)n1nc(S(=O)(=O)NC(=O)Nc2c3c(cc4c2CCC4)CCC3)cc1C(C)(C)O [Example 49, N-((1,2,3,5,6,7-Hexahydro-s-indacen-4-yl)carbamoyl)-5-(2-hydroxypropan-2-yl)-1-isopropyl-1H-pyrazole-3-sulfonamide]
pIC50 (NLRP3 [2]): 6.00 to 6.30 | pIC50 (NLRP3 [3]): > 6.60

CC(C)c1cc(F)cc2c1C(C(=O)NS(=O)(=O)c1cc(C(C)(C)O)cs1)CC2(C)C (single isomer, unassigned) [Example 8, 5-Fluoro-N-((4-(2-hydroxypropan-2-yl)thiophen-2-yl)sulfonyl)-7-isopropyl-3,3-dimethyl-2,3-dihydro-1H-indene-1-carboxamide, potassium salt (rotamer P1)]
pIC50 (NLRP3 [2]): 5.30 to 6.00 | pIC50 (NLRP3 [3]): 6.00 to 6.30

COC1(c2cc(S(=O)(=O)NC(=O)Nc3c4c(cc5c3CCC5)CCC4)nn2C)CCCC1 [Example 52, N-((1,2,3,5,6,7-hexahydro-s-indacen-4-yl)carbamoyl)-5-(1-methoxycyclopentyl)-1-methyl-1H-pyrazole-3-sulfonamide]
pIC50 (NLRP3 [2]): 6.00 to 6.30 | pIC50 (NLRP3 [3]): > 6.60

CC(C)n1ccc(S(=O)(=O)NC(=O)Nc2c3c(cc4c2C(=O)CC4)CCC3)n1 [Example 15, 1-Isopropyl-N-((3-oxo-1,2,3,5,6,7-hexahydro-s-indacen-4-yl)carbamoyl)-1H-pyrazole-3-sulfonamide, potassium salt]
pIC50 (NLRP3 [2]): < 5.00 | pIC50 (NLRP3 [3]): 5.30 to 6.00

CC(C)n1cnc(S(=O)(=O)NC(=O)Nc2c3c(cc4c2CCC4)CCC3)n1 [Example 46, N-((1,2,3,5,6,7-Hexahydro-s-indacen-4-yl)carbamoyl)-1-isopropyl-1H-1,2,4-triazole-3-sulfonamide, sodium salt]
pIC50 (NLRP3 [2]): 6.00 to 6.30 | pIC50 (NLRP3 [3]): 6.30 to 6.60 | AUC ([4]; 1 mg/kg): 10000 ng·h/mL | half-life ([4]; 1 mg/kg): 240 min | clearance ([4]; 1 mg/kg): 1.7 mL/min/kg | Vd ([4]; 1 mg/kg): 0.45 L/kg

O=C(Nc1c2c(cc3c1CCC3)CCC2)NS(=O)(=O)c1ccn(C2CCC2)n1 [Example 59, 1-Cyclobutyl-N-((1,2,3,5,6,7-hexahydro-s-indacen-4-yl)carbamoyl)-1H-pyrazole-3-sulfonamide]
pIC50 (NLRP3 [2]): 5.30 to 6.00 | pIC50 (NLRP3 [3]): > 6.60
